≈ marks a conversion by molar mass, not a printed value. Like-named read-outs stand apart in the source and are kept apart here.
Experiments:
[1] = Solubility of norketotifen (saturated solutions, HPLC); type: physicochemical; details: for solubility: thermodynamic from solid
Protocol: Saturated solutions of norketotifen were prepared at room temperature by stirring, overnight sonication and filtering of the saturated supernatant solutions. An HPLC method for the determination of concentrations of norketotifen was developed:
The HPLC system was a HP 1050 with a variable wavelength detector. […] The relative standard deviation was approximately 0.3 percent for the main peak area.

[2] = tested on: human granulocytes (buffy coat); test: Inhibition of histamine release from granulocytes (A23187-induced granulocyte activation); type: cell-based; details: for IC50: 20 min, A23187 (5 μM), 20 min/37° C.
Protocol: In the present studies, effects on granulocyte activation was studied as inhibition of histamine release from human granulocytes (buffy coat) by norketotifen. The method is a modification of the method described by Nolte, H. et al., 1988. Granulocytes were obtained from human volunteers and mediator release was induced by incubation (20 min/37° C.) with the calcium ionophore A23187 (5 μM) in the presence or absence of a test article. Histamine was selected as an indicator for mediator release because of the ease with which histamine can be analyzed, using commercially available kits. The test articles were evaluated, in duplicate, at five concentrations and IC50-values were calculated.
The calcium ionophore A23187 was used to increase intracellular calcium concentration of the granulocytes.

[3] = Stability of norketotifen formulations; type: physicochemical; details: pH 6.5; accelerated testing (55° C.)
Protocol: Stability of norketotifen formulations was studied after incubation at various temperatures, acidity and time intervals. The concentrations of norketotifen were measured after incubation periods of various lengths.

[4] = tested on: rabbit eyes; test: Ocular irritation test; type: in vivo, New Zealand White rabbits; details: excipient-free solution 0.0345% in water or saline; rabbit eye, seven instillations of 0.1 ml
Protocol: New Zealand White rabbits, weighing 2 to 4 kilograms were used. Test formulation, in volumes of 0.1 ml were instilled into the conjunctival sac of six rabbit eyes of groups. Said volume of each formulation was repeatedly instilled every 30 minutes for 3 hours (a total of seven instillation into the eyes of rabbits. Ocular irritation was scored according to both Draize et al., 1944 and Kay and Calandra, 1962. Scorings were performed before each instillation and 30 minutes, 3 hours and 24 hours after the last instillation.
The formulations of norketotifen in Table 7 were prepared and tested and the results were compared with irritation by norketotifen in excipient-free solutions. […] In the present study, norketotifen HF was dissolved to an intended concentration of 0.276 percent in the various solutions, using stirring and over-night sonication at room temperature. After sonication, all solutions were filtered through a 0.45 μm non-pyrogenic MILLEX® HV filter unit before being used for ocular tests. Thus, all of the solutions used for the ocular irritation tests in Table 7 contained the highest possible concentrations of norketotifen HF.
Solutions of norketotifen were similarly prepared in excipient-free solutions containing only norketotifen HF 0.0345 percent by weight, dissolved in water or in saline, and filtered as described above. […]

[5] = target: T1, H-1 (Rattus norvegicus, UniProt P31390); test: Antihistaminic (H-1) activity in vivo after oral administration (histamine wheal); design: species or system rats; details: for Histamine (wheal area): 60 min before intradermal histamine; for Saline (wheal area): intradermal histamine vehicle
T1 construct: two intradermal injections of histamine; from tissue; host or cells: dorsal skin of live male rats (in vivo)
T1 sequence (P31390 whole entry): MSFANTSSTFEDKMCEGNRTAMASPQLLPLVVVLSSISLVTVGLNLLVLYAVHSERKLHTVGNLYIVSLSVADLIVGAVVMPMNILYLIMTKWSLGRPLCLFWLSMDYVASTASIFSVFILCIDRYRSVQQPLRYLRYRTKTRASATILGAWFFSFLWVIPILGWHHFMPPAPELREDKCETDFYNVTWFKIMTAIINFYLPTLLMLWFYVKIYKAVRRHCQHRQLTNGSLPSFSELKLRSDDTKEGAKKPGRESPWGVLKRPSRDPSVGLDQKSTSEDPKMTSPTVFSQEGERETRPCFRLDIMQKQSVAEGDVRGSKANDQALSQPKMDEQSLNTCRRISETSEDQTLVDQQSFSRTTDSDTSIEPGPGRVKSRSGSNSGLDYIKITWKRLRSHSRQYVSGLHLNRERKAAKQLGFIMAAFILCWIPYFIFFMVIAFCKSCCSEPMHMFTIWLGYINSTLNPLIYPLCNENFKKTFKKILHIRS
Protocol: Male rats (150-200 g) were starved overnight and twelve hours after dorsal depilation, the animals were dosed orally with the test compound(s). Four dorsal test areas were marked with permanent ink. Exactly 60 min after the dosing of the test compound, two intradermal injections of histamine (50 microliter; 1.0 mg/ml of histamine di-HCl) were performed, one on each side on the back of the animal. Two intradermal injections of the vehicle for the histamine solution were also performed. Evans blue dye (20 mg/kg) was injected iv 1 minute prior to the intra-dermal injections of histamine and the histamine vehicle. Twenty minutes were allowed for the wheal response to fully develop, whereupon the animals were euthanized and the dorsal skin containing the intradermal wheals was deflected. The blue spotted areas were measured in square millimeters and the duplicate vehicle wheal responses were averaged. […] The inhibition was calculated in percent difference from the corresponding vehicle baseline value.

[6] = water, read-out: water solubility

CN1CCC(=C2c3ccccc3CC(=O)c3sccc32)CC1 [ketotifen]
solubility [1, 6]: ~12500 µg/mL (≈ 40.4 mM) | IC50 [2]: 91 µM

O=C1Cc2ccccc2C(=C2CCNCC2)c2ccsc21 [norketotifen FB]
solubility of free base in non-aqueous solvents ([1]; propylene glycol, glycerin, ethanol and isopropyl alcohol): can be dissolved

O=C1Cc2ccccc2C(=C2CCNCC2)c2ccsc21 [norketotifen]
soluble in polyethylene glycol (PEG 300) ([1]; PEG 300): up to 0.15 percent w/w | solubility ([1]; pH 8.6, aqueous buffer, read-out: solubility of norketotifen in water): 2100 µg/mL (≈ 7.11 mM) | solubility ([1]; pH 8.75, aqueous buffer, read-out: solubility of norketotifen in water): ~1000 µg/mL (≈ 3.39 mM) | soluble in propylene glycol ([1]; propylene glycol): up to 1.0 percent by weight | solubility ([1]; propylene glycol, organic solvent or mixture, read-out: solubility of norketotifen in propylene glycol): ~10000 µg/mL (≈ 33.9 mM) | can be dissolved in water ([1]; water): up to 0.216 percent by weight | solubility [1, 6]: ~2160 µg/mL (≈ 7.31 mM) | stability in solution formulations [3]: not stable | ocular irritation (Draize; Kay and Calandra scoring) [4]: caused irritation | inhibition at 1 mg/kg ([5]; rat, po): 6% | inhibition at 10 mg/kg ([5]; rat, po): 83% | inhibition at 50 mg/kg ([5]; rat, po): 100% | absorption after oral administration ([5]; rats, oral): well absorbed | antihistaminic potency relative to diphenhydramine ([5]; rats, oral): more potent than the reference compound | Histamine effect ([5]; rats, oral, 1 mg/kg): 92 mm^2 | Histamine (wheal area) ([5]; rats, oral, 1 mg/kg): 114 ± 8 mm^2 | Saline (wheal area) ([5]; rats, oral, 1 mg/kg): 22 ± 1 mm^2 | Histamine effect ([5]; rats, oral, 10 mg/kg): 17 mm^2 | Histamine (wheal area) ([5]; rats, oral, 10 mg/kg): 39 ± 2 mm^2 | Saline (wheal area) ([5]; rats, oral, 10 mg/kg): 22 ± 1 mm^2 | Histamine effect ([5]; rats, oral, 50 mg/kg): 0 mm^2 | Histamine (wheal area) ([5]; rats, oral, 50 mg/kg): 10 ± 1 mm^2 | Saline (wheal area) ([5]; rats, oral, 50 mg/kg): 12 ± 1 mm^2 | antihistaminic activity relative to ketotifen ([5]; tested in vivo (Example 12)): about half of that of ketotifen | IC50 [2]: 9.2 µM | activity relative to ketotifen in inhibiting granulocyte activation (anti-inflammatory) ([2]; A23187-induced): about ten times more potent than ketotifen

Reference: patent US8765787B2, “Methods of treatment of xerophthalmia with self-preserving ocular formulations of norketotifen” (Bridge Pharma, Inc., priority 2008, dated 2014)
